Results taken from patent publication US20030045563A1, “Pharmaceutical composition having reduced tendency for drug crystallization” (priority 2001, published 2003).
Blank lines part the entries; values can stand above or below the compound they belong to.

Assay: Test I: turbidity (apparent absorbance at 650 nm) of drug solutions with or without test polymer
Conditions: pH 7 phosphate buffer
[1] = drug 31.3 μg/ml, Dextran 65,000 0.5% w/w
[2] = drug 31.3 μg/ml, Ethylcellulose A15 0.5% w/w
[3] = drug 31.3 μg/ml, Glycerin (non-polymer) 0.5% w/w
[4] = drug 31.3 μg/ml, HPC 80,000 0.5% w/w
[5] = drug 31.3 μg/ml, HPMC E15 0.5% w/w
[6] = drug 31.3 μg/ml, Na CMC 250,000 0.5% w/w
[7] = drug 31.3 μg/ml, PEG 8,000 0.5% w/w
[8] = drug 31.3 μg/ml, PEG 20,000 0.5% w/w
[9] = drug 31.3 μg/ml, PVP 10,000 0.5% w/w
[10] = drug 31.3 μg/ml, PVP 29,000 0.5% w/w
[11] = drug 31.3 μg/ml, PVP 55,000 0.5% w/w
[12] = drug 62.5 μg/ml, Dextran 65,000 0.5% w/w
[13] = drug 62.5 μg/ml, Ethylcellulose A15 0.5% w/w
[14] = drug 62.5 μg/ml, Glycerin (non-polymer) 0.5% w/w
[15] = drug 62.5 μg/ml, HPC 80,000 0.5% w/w
[16] = drug 62.5 μg/ml, HPMC E15 0.5% w/w
[17] = drug 62.5 μg/ml, Na CMC 250,000 0.5% w/w
[18] = drug 62.5 μg/ml, PEG 8,000 0.5% w/w
[19] = drug 62.5 μg/ml, PEG 20,000 0.5% w/w
[20] = drug 62.5 μg/ml, PVP 10,000 0.5% w/w
[21] = drug 62.5 μg/ml, PVP 29,000 0.5% w/w
[22] = drug 62.5 μg/ml, PVP 55,000 0.5% w/w
[23] = drug 125 μg/ml, Dextran 65,000 0.5% w/w
[24] = drug 125 μg/ml, Ethylcellulose A15 0.5% w/w
[25] = drug 125 μg/ml, Glycerin (non-polymer) 0.5% w/w
[26] = drug 125 μg/ml, HPC 80,000 0.5% w/w
[27] = drug 125 μg/ml, HPMC E15 0.5% w/w
[28] = drug 125 μg/ml, Na CMC 250,000 0.5% w/w
[29] = drug 125 μg/ml, PEG 8,000 0.5% w/w
[30] = drug 125 μg/ml, PEG 20,000 0.5% w/w
[31] = drug 125 μg/ml, PVP 10,000 0.5% w/w
[32] = drug 125 μg/ml, PVP 29,000 0.5% w/w
[33] = drug 125 μg/ml, PVP 55,000 0.5% w/w
[34] = drug 250 μg/ml, Dextran 65,000 0.5% w/w
[35] = drug 250 μg/ml, Ethylcellulose A15 0.5% w/w
[36] = drug 250 μg/ml, Glycerin (non-polymer) 0.5% w/w
[37] = drug 250 μg/ml, HPC 80,000 0.5% w/w
[38] = drug 250 μg/ml, HPMC E15 0.5% w/w
[39] = drug 250 μg/ml, Na CMC 250,000 0.5% w/w
[40] = drug 250 μg/ml, PEG 8,000 0.5% w/w
[41] = drug 250 μg/ml, PEG 20,000 0.5% w/w
[42] = drug 250 μg/ml, PVP 10,000 0.5% w/w
[43] = drug 250 μg/ml, PVP 29,000 0.5% w/w
[44] = drug 250 μg/ml, PVP 55,000 0.5% w/w

Absorbance [1]: 0.033
Absorbance [2]: 0.041
Absorbance [3]: 0.038
Absorbance [4]: 0.034
Absorbance [5]: 0.037
Absorbance [6]: 0.046
Absorbance [7]: 0.031
Absorbance [8]: 0.039
Absorbance [9]: 0.035
Absorbance [10]: 0.031
Absorbance [11]: 0.04
Absorbance (drug 31.3 μg/ml, polymer None): 0.036
Absorbance [12]: 0.076
Absorbance [13]: 0.039
Absorbance [14]: 0.07
Absorbance [15]: 0.038
Absorbance [16]: 0.039
Absorbance [17]: 0.078
Absorbance [18]: 0.169
Absorbance [19]: 0.16
Absorbance [20]: 0.041
Absorbance [21]: 0.037
Absorbance [22]: 0.049
Absorbance (drug 62.5 μg/ml, polymer None): 0.069
Absorbance [23]: 0.266
Absorbance [24]: 0.06
Absorbance (drug 125 μg/ml, Ethylcellulose A15 0.5% w/w, listed as celecoxib): reduced turbidity
Absorbance [25]: 0.184
Absorbance [26]: 0.05
Absorbance (drug 125 μg/ml, HPC 80,000 0.5% w/w, listed as celecoxib): reduced turbidity
Absorbance [27]: 0.049
Absorbance (drug 125 μg/ml, HPMC E15 0.5% w/w, listed as celecoxib): reduced turbidity
Absorbance [28]: 0.083
Absorbance (drug 125 μg/ml, Na CMC 250,000 0.5% w/w, listed as celecoxib): reduced turbidity
Absorbance [29]: 0.308
Absorbance [30]: 0.342
Absorbance [31]: 0.072
Absorbance (drug 125 μg/ml, PVP 10,000 0.5% w/w, listed as celecoxib): reduced turbidity
Absorbance [32]: 0.064
Absorbance (drug 125 μg/ml, PVP 29,000 0.5% w/w, listed as celecoxib): reduced turbidity
Absorbance [33]: 0.048
Absorbance (drug 125 μg/ml, PVP 55,000 0.5% w/w, listed as celecoxib): reduced turbidity
Absorbance (drug 125 μg/ml, polymer None): 0.146
Absorbance [34]: 0.379
Absorbance [35]: 0.085
Absorbance (drug 250 μg/ml, Ethylcellulose A15 0.5% w/w, listed as celecoxib): reduced turbidity
Absorbance [36]: 0.41
Absorbance [37]: 0.11
Absorbance (drug 250 μg/ml, HPC 80,000 0.5% w/w, listed as celecoxib): reduced turbidity
Absorbance [38]: 0.093
Absorbance (drug 250 μg/ml, HPMC E15 0.5% w/w, listed as celecoxib): reduced turbidity
Absorbance [39]: 0.148
Absorbance (drug 250 μg/ml, Na CMC 250,000 0.5% w/w, listed as celecoxib): reduced turbidity
Absorbance [40]: 0.485
Absorbance [41]: 0.654
Absorbance [42]: 0.2
Absorbance (drug 250 μg/ml, PVP 10,000 0.5% w/w, listed as celecoxib): reduced turbidity
Absorbance [43]: 0.118
Absorbance (drug 250 μg/ml, PVP 29,000 0.5% w/w, listed as celecoxib): reduced turbidity
Absorbance [44]: 0.105
Absorbance (drug 250 μg/ml, PVP 55,000 0.5% w/w, listed as celecoxib): reduced turbidity
Absorbance (drug 250 μg/ml, polymer None): 0.376
Compound: Cc1ccc(-c2cc(C(F)(F)F)nn2-c2ccc(S(N)(=O)=O)cc2)cc1 [Celecoxib, 4-[5-(4-methylphenyl)-3-(trifluoromethyl)-1H-pyrazol-1-yl]benzenesulfonamide]

Absorbance [1]: 0.03
Absorbance [2]: 0.033
Absorbance [3]: 0.03
Absorbance [4]: 0.031
Absorbance [5]: 0.032
Absorbance [6]: 0.03
Absorbance [7]: 0.03
Absorbance [8]: 0.031
Absorbance [9]: 0.032
Absorbance [10]: 0.03
Absorbance [11]: 0.032
Absorbance (drug 31.3 μg/ml, polymer None): 0.031
Absorbance [12]: 0.031
Absorbance [13]: 0.033
Absorbance [14]: 0.028
Absorbance [15]: 0.032
Absorbance [16]: 0.034
Absorbance [17]: 0.036
Absorbance [18]: 0.03
Absorbance [19]: 0.031
Absorbance [20]: 0.034
Absorbance [21]: 0.03
Absorbance [22]: 0.031
Absorbance (drug 62.5 μg/ml, polymer None): 0.029
Absorbance [23]: 0.033
Absorbance [24]: 0.033
Absorbance [25]: 0.029
Absorbance [26]: 0.046
Absorbance [27]: 0.034
Absorbance [28]: 0.09
Absorbance [29]: 0.03
Absorbance [30]: 0.031
Absorbance [31]: 0.032
Absorbance [32]: 0.032
Absorbance [33]: 0.032
Absorbance (drug 125 μg/ml, polymer None): 0.029
Absorbance [34]: 0.289
Absorbance [35]: 0.052
Absorbance (drug 250 μg/ml, Ethylcellulose A15 0.5% w/w, listed as valdecoxib): reduced turbidity
Absorbance [36]: 0.229
Absorbance [37]: 0.093
Absorbance (drug 250 μg/ml, HPC 80,000 0.5% w/w, listed as valdecoxib): reduced turbidity
Absorbance [38]: 0.064
Absorbance (drug 250 μg/ml, HPMC E15 0.5% w/w, listed as valdecoxib): reduced turbidity
Absorbance [39]: 0.174
Absorbance (drug 250 μg/ml, Na CMC 250,000 0.5% w/w, listed as valdecoxib): reduced turbidity
Absorbance [40]: 0.345
Absorbance [41]: 0.433
Absorbance [42]: 0.321
Absorbance [43]: 0.183
Absorbance (drug 250 μg/ml, PVP 29,000 0.5% w/w, listed as valdecoxib): reduced turbidity
Absorbance [44]: 0.162
Absorbance (drug 250 μg/ml, PVP 55,000 0.5% w/w, listed as valdecoxib): reduced turbidity
Absorbance (drug 250 μg/ml, polymer None): 0.185
Compound: Cc1onc(-c2ccccc2)c1-c1ccc(S(N)(=O)=O)cc1 [Valdecoxib, 4-[5-methyl-3-phenylisoxazol-4-yl]benzenesulfonamide]
